Measured values reported in patent US12209087B2, “AKT1 modulators” (Alterome Therapeutics, Inc., priority 2022, dated 2025).

Biological target: T1, full length AKT E17K (Homo sapiens, UniProt P31749, E17K)
T1 construct: host or cells: HEK-293 (ATCC CRL-1573)
Test: NanoBRET Target Engagement (TE) Assay
Format: cell-based
Conditions: competitive tracer displacement in living cells, read-out: AKT1 E17K IC50
Method in brief: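 Compound and tracer incubated 2 h before luminescence at donor 450 nm and acceptor 600 nm, with extracellular signal inhibited. EC50 by sigmoidal variable-slope regression.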

T1 sequence (P31749 whole entry E17K): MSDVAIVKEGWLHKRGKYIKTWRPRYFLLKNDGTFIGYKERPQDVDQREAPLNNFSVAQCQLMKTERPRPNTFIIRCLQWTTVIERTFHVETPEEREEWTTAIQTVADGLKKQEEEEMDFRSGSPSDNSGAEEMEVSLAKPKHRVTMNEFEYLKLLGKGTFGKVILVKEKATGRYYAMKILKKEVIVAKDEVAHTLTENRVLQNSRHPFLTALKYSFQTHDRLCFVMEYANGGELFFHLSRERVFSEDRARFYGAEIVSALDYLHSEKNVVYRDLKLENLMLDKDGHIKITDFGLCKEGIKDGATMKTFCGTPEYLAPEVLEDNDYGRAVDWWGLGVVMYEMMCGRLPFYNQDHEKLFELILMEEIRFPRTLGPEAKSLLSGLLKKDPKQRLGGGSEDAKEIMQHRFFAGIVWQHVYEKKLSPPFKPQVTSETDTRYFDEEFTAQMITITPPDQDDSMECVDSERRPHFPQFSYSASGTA

SMILES	IC50
N#Cc1cc(N2C[C@H]3C[C@@H]2CN3Cc2ccc(-n3c(-c4cccnc4N)nc4ccc(-c5ccccc5)nc43)cc2)ncn1 [Example 218, 6-((1R,4R)-5-(4-(2-(2-Aminopyridin-3-yl)-5-phenyl-3H-imidazo[4,5-b]pyridin-3-yl)benzyl)-2,5-diazabicyclo[2.2.1]heptan-2-yl)pyrimidine-4-carbonitrile]	15 to 60 nM
N#Cc1nccc(N2CC3CCC2CN3Cc2ccc(-n3c(-c4cccnc4N)nc4ccc(-c5ccccc5)nc43)cc2)n1 (stereo not drawn) [Example 219, 4-(5-(4-(2-(2-Aminopyridin-3-yl)-5-phenyl-3H-imidazo[4,5-b]pyridin-3-yl)benzyl)-2,5-diazabicyclo[2.2.2]octan-2-yl)pyrimidine-2-carbonitrile]	< 15 nM
N#Cc1ccnc(N2CC3CCC2CN3Cc2ccc(-n3c(-c4cccnc4N)nc4ccc(-c5ccccc5)nc43)cc2)n1 (stereo not drawn) [Example 220, 2-(5-(4-(2-(2-Aminopyridin-3-yl)-5-phenyl-3H-imidazo[4,5-b]pyridin-3-yl)benzyl)-2,5-diazabicyclo[2.2.2]octan-2-yl)pyrimidine-4-carbonitrile]	60 to 600 nM
N#Cc1cc(N2CC3CCC2CN3Cc2ccc(-n3c(-c4cccnc4N)nc4ccc(-c5ccccc5)nc43)cc2)ncn1 (stereo not drawn) [Example 221, 6-(5-(4-(2-(2-Aminopyridin-3-yl)-5-phenyl-3H-imidazo[4,5-b]pyridin-3-yl)benzyl)-2,5-diazabicyclo[2.2.2]octan-2-yl)pyrimidine-4-carbonitrile]	60 to 600 nM
[2H]C([2H])(c1ccc(-n2c(-c3cccnc3N)nc3ccc(-c4ccccc4)nc32)cc1)N1CCC(Nc2ccnc(C#N)n2)CC1 [Example 222, 4-((1-((4-(2-(2-Aminopyridin-3-yl)-5-phenyl-3H-imidazo[4,5-h]pyridin-3-yl)phenyl)methyl-d2)piperidin-4-yl)amino)pyrimidine-2-carbonitrile]	< 15 nM
CN(c1ncnc(C#N)n1)C1CCN(Cc2ccc(-n3c(-c4cccnc4N)nc4ccc(-c5ccccc5)nc43)cc2)CC1 [Example 223, 4-((1-(4-(2-(2-aminopyridin-3-yl)-5-phenyl-3H-imidazo[4,5-b]pyridin-3-yl)benzyl)piperidin-4-yl)(methyl)amino)-1,3,5-triazine-2-carbonitrile]	15 to 60 nM
N#Cc1ncnc(N[C@H]2CCCN(Cc3ccc(-n4c(-c5cccnc5N)nc5ccc(-c6ccccc6)nc54)cc3)C2)n1 [Example 224, (S)-4-((1-(4-(2-(2-Aminopyridin-3-yl)-5-phenyl-3H-imidazo[4,5-b]pyridin-3-yl)benzyl)piperidin-3-yl)amino)-1,3,5-triazine-2-carbonitrile]	< 15 nM
C[C@@H]1CN(Cc2ccc(-n3c(-c4cccnc4N)nc4ccc(-c5ccccc5)nc43)cc2)CCN1c1ccnc(C#N)n1 [Example 225, (R)-4-(4-(4-(2-(2-aminopyridin-3-yl)-5-phenyl-3H-imidazo[4,5-b]pyridin-3-yl)benzyl)-2-methylpiperazin-1-yl)pyrimidine-2-carbonitrile]	60 to 600 nM
C[C@@H]1CN(Cc2ccc(-n3c(-c4cccnc4N)nc4ccc(-c5ccccc5)nc43)cc2)CCN1c1nccc(C#N)n1 [Example 226, (R)-2-(4-(4-(2-(2-Aminopyridin-3-yl)-5-phenyl-3H-imidazo[4,5-b]pyridin-3-yl)benzyl)-2-methylpiperazin-1-yl)pyrimidine-4-carbonitrile]	60 to 600 nM
C[C@@H]1CN(Cc2ccc(-n3c(-c4cccnc4N)nc4ccc(-c5ccccc5)nc43)cc2)CCN1c1cc(C#N)ncn1 [Example 227, (R)-6-(4-(4-(2-(2-Aminopyridin-3-yl)-5-phenyl-3H-imidazo[4,5-b]pyridin-3-yl)benzyl)-2-methylpiperazin-1-yl)pyrimidine-4-carbonitrile]	60 to 600 nM
N#Cc1ccnc(N2CCCN(Cc3ccc(-n4c(-c5cccnc5N)nc5ccc(-c6ccccc6)nc54)cc3)CC2)n1 [Example 228, 2-(4-(4-(2-(2-Aminopyridin-3-yl)-5-phenyl-3H-imidazo[4,5-b]pyridin-3-yl)benzyl)-1,4-diazepan-1-yl)pyrimidine-4-carbonitrile]	15 to 60 nM
N#Cc1nccc(C(=O)NC2C3CCC2CN(Cc2ccc(-n4c(-c5cccnc5N)nc5ccc(-c6ccccc6)nc54)cc2)C3)n1 (stereo not drawn) [Example 229, N-(3-(4-(2-(2-aminopyridin-3-yl)-5-phenyl-3H-imidazo[4,5-b]pyridin-3-yl)benzyl)-3-azabicyclo[3.2.1]octan-8-yl)-2-cyanopyrimidine-4-carboxamide]	15 to 60 nM
N#Cc1cc(C(=O)NC2C3CCC2CN(Cc2ccc(-n4c(-c5cccnc5N)nc5ccc(-c6ccccc6)nc54)cc2)C3)ncn1 (stereo not drawn) [Example 230, N-(3-(4-(2-(2-aminopyridin-3-yl)-5-phenyl-3H-imidazo[4,5-b]pyridin-3-yl)benzyl)-3-azabicyclo[3.2.1]octan-8-yl)-6-cyanopyrimidine-4-carboxamide]	60 to 600 nM
N#Cc1ccnc(NC2C3CCC2CN(Cc2ccc(-n4c(-c5cccnc5N)nc5ccc(-c6ccccc6)nc54)cc2)C3)n1 (stereo not drawn) [Example 231, 2-((3-(4-(2-(2-Aminopyridin-3-yl)-5-phenyl-3H-imidazo[4,5-b]pyridin-3-yl)benzyl)-3-azabicyclo[3.2.1]octan-8-yl)amino)pyrimidine-4-carbonitrile]	600 to 10000 nM
[2H]C([2H])([2H])N(c1ccnc(C#N)n1)C1CCN(Cc2ccc(-n3c(-c4cccnc4N)nc4ccc(-c5ccccc5)nc43)cc2)CC1 [Example 232, 4-((1-(4-(2-(2-Aminopyridin-3-yl)-5-phenyl-3H-imidazo[4,5-b]pyridin-3-yl)benzyl)piperidin-4-yl)(methyl-d3)amino)pyrimidine-2-carbonitrile]	< 15 nM
[2H]C([2H])([2H])N(c1ncnc(C#N)n1)C1CCN(Cc2ccc(-n3c(-c4cccnc4N)nc4ccc(-c5ccccc5)nc43)cc2)CC1 [Example 233, 4-((1-(4-(2-(2-Aminopyridin-3-yl)-5-phenyl-3H-imidazo[4,5-b]pyridin-3-yl)benzyl)piperidin-4-yl)(methyl-d3)amino)-1,3,5-triazine-2-carbonitrile]	15 to 60 nM
[2H]C([2H])([2H])N(C(=O)c1ccnc(C#N)n1)C1CCN(Cc2ccc(-n3c(-c4cccnc4N)nc4ccc(-c5ccccc5)nc43)cc2)CC1 [Example 234, N-(1-(4-(2-(2-aminopyridin-3-yl)-5-phenyl-3H-imidazo[4,5-b]pyridin-3-yl)benzyl)piperidin-4-yl)-2-cyano-N-(methyl-d3)pyrimidine-4-carboxamide]	< 15 nM
N#Cc1nccc(N2CCN(Cc3ccc(-n4c(-c5cccnc5N)nc5ccc(N6CCOCC6)nc54)cc3)CC2)n1 [Example 235, 4-(4-(4-(2-(2-Aminopyridin-3-yl)-5-morpholino-3H-imidazo[4,5-b]pyridin-3-yl)benzyl)piperazin-1-yl)pyrimidine-2-carbonitrile]	60 to 600 nM
N#Cc1ccnc(N2CCN(Cc3ccc(-n4c(-c5cccnc5N)nc5ccc(N6CCOCC6)nc54)cc3)CC2)n1 [Example 236, 2-(4-(4-(2-(2-Aminopyridin-3-yl)-5-morpholino-3H-imidazo[4,5-b]pyridin-3-yl)benzyl)piperazin-1-yl)pyrimidine-4-carbonitrile]	15 to 60 nM
N#Cc1cc(N2CCN(Cc3ccc(-n4c(-c5cccnc5N)nc5ccc(N6CCOCC6)nc54)cc3)CC2)ncn1 [Example 237, 6-(4-(4-(2-(2-Aminopyridin-3-yl)-5-morpholino-3H-imidazo[4,5-b]pyridin-3-yl)benzyl)piperazin-1-yl)pyrimidine-4-carbonitrile]	15 to 60 nM
N#Cc1nccc(N2CCN(Cc3ccc(-n4c(-c5cccnc5N)nc5ccc(-c6cccc(=O)[nH]6)nc54)cc3)CC2)n1 [Example 238, 4-(4-(4-(2-(2-Aminopyridin-3-yl)-5-(6-oxo-1,6-dihydropyridin-2-yl)-3H-imidazo[4,5-b]pyridin-3-yl)benzyl)piperazin-1-yl)pyrimidine-2-carbonitrile]	15 to 60 nM
N#Cc1nccc(NC2CCN(Cc3ccc(-n4c(-c5cccnc5N)nc5ccc(N6CCOCC6)nc54)cc3)CC2)n1 [Example 239, 4-((1-(4-(2-(2-Aminopyridin-3-yl)-5-morpholino-3H-imidazo[4,5-b]pyridin-3-yl)benzyl)piperidin-4-yl)amino)pyrimidine-2-carbonitrile]	< 15 nM
N#Cc1ccnc(NC2CCN(Cc3ccc(-n4c(-c5cccnc5N)nc5ccc(N6CCOCC6)nc54)cc3)CC2)n1 [Example 240, 2-((1-(4-(2-(2-Aminopyridin-3-yl)-5-morpholino-3H-imidazo[4,5-b]pyridin-3-yl)benzyl)piperidin-4-yl)amino)pyrimidine-4-carbonitrile]	15 to 60 nM
N#Cc1cc(NC2CCN(Cc3ccc(-n4c(-c5cccnc5N)nc5ccc(N6CCOCC6)nc54)cc3)CC2)ncn1 [Example 241, 6-((1-(4-(2-(2-Aminopyridin-3-yl)-5-morpholino-3H-imidazo[4,5-b]pyridin-3-yl)benzyl)piperidin-4-yl)amino)pyrimidine-4-carbonitrile]	15 to 60 nM
N#Cc1nccc(N2CCN(Cc3ccc(-n4c(-c5cccnc5N)nc5ccc(-c6ccc(F)cc6)nc54)cc3)CC2)n1 [Example 242, 4-(4-(4-(2-(2-Aminopyridin-3-yl)-5-(4-fluorophenyl)-3H-imidazo[4,5-b]pyridin-3-yl)benzyl)piperazin-1-yl)pyrimidine-2-carbonitrile]	15 to 60 nM
N#Cc1ccnc(N2CCN(Cc3ccc(-n4c(-c5cccnc5N)nc5ccc(-c6ccc(F)cc6)nc54)cc3)CC2)n1 [Example 243, 2-(4-(4-(2-(2-Aminopyridin-3-yl)-5-(4-fluorophenyl)-3H-imidazo[4,5-b]pyridin-3-yl)benzyl)piperazin-1-yl)pyrimidine-4-carbonitrile]	60 to 600 nM
N#Cc1nc(C(=O)NCc2ccc(-n3c(-c4cccnc4N)nc4cccnc43)cc2)cs1 [Example 244, N-(4-(2-(2-Aminopyridin-3-yl)-3H-imidazo[4,5-b]pyridin-3-yl)benzyl)-2-cyanothiazole-4-carboxamide]	600 to 10000 nM
